# Patent US20140206534A1, “FORMULATION” (SYNGENTA LIMITED, priority 2011, published 2014)
# Columns and labels:
# [1] = UV/Vis release rate measurement of Bitrex in water; format: physicochemical; settings: 100 mg in 40 ml water, shaken
# Experimental: 2 ml of the mixture was removed at each time interval for analysis.
# [2] = Visual release rate test of Bitrex in water; format: physicochemical; settings: after 15 minutes; 0.4 mg agitated in 10 ml water
# Experimental: 0.4 mg of sample was agitated in 10 ml of water and observed over 8 hours.
structure (smiles),measurement,setting,value
"CC[N+](CC)(CC(=O)Nc1c(C)cccc1C)Cc1ccccc1 [Uncoated Bitrex, Denatonium benzoate]",% release of Bitrex relative to the total content,[1]; 5 minutes,99.6%
same,% release of Bitrex relative to the total content,[1]; 15 minutes,99.8%
same,visual observation of dissolution,[2],fully dissolved
